According to article PMC11389776, “Positive allosteric modulation of a GPCR ternary complex” (Science Advances, 2024):

Columns and labels:
[1] = target: T1, M2 mAChR (Homo sapiens, UniProt P08172, DEL226-389); experiment: [3H]-NMS interaction binding with LY211 and/or G protein at M2 mAChR nanodiscs (full interaction and titration)
T1 construct: made in house; host or cells: Sf9 insect cells (receptor, baculovirus); Trichoplusia ni Hi5 cells (G protein); E. coli BL21(DE3) (cMSP1D1 scaffold)
T1 sequence (P08172 with tags, fused parts or gaps DEL226-389): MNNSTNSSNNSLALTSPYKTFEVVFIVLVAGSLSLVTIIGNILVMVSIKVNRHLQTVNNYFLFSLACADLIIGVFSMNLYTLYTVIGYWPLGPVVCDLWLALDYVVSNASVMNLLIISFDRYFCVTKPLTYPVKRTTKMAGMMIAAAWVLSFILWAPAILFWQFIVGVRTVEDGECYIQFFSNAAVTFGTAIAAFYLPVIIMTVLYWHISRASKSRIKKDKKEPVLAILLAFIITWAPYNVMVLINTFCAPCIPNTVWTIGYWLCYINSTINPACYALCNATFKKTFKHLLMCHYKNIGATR
Method: (§1) The affinity of [^3H]-NMS for M2 mAChR in nanodiscs, as well as the concentration of receptor in nanodiscs, was determined through saturation binding with [^3H]-NMS. M2 nanodiscs were incubated with a range of concentrations of [^3H] […] Membrane equilibrium binding experiments were performed with 15 μg of membrane expressing the WT hM2 mAChR in a 300-μl reaction volume of binding buffer with or without 100 μM Gpp[NH]pp in deep 96-well plates for 6 hours at RT. […] For all radioligand binding experiments, nonspecific binding was defined by 10 μM Atr and the assay was terminated through rapid filtration through Whatman GF/B filter plates using a 96-well harvester (PerkinElmer). Filter plates were dried overnight, and radioactivity was determined by adding 40 μl of MicroScint-O scintillation fluid and counting in a MicroBeta^2 Plate Counter (PerkinElmer Life Sciences).
(§2) All data were analyzed using GraphPad Prism 9 (GraphPad Software, San Diego, CA). […] For competition binding experiments between [^3H]-NMS and a range of concentrations of unlabeled orthosteric agonist at M2 mAChR nanodiscs in the presence of G protein and for competition binding at M2 mAChR membranes, data were fit to a two-site competition binding model or a one-site competition binding model. […] Monoexponential decay and one-phase association equations were fit to the radioligand dissociation and association data at M2 mAChR nanodiscs.

[2] = target: T2, M2ΔICL3 mAChR (Homo sapiens, UniProt P08172, DEL226-389); experiment: ERK1/2 phosphorylation assay in M2ΔICL3 mAChR FlpIn CHO cells; type: cell-based; conditions: pERK1/2, M2ΔICL3 mAChR FlpIn CHO cells, normalized to FBS; three-parameter logistic
T2 construct: expressed in transfected cells
T2 sequence (P08172 with tags, fused parts or gaps DEL226-389): T1 sequence (P08172 with tags, fused parts or gaps DEL226-389)
Method: (§3) All data were analyzed using GraphPad Prism 9 (GraphPad Software, San Diego, CA). Concentration-response curves were fit with a three-parameter logistic equation to quantify potency (pEC50) and an operational model of agonism to derive an efficacy parameter (log τ) ([69]). […] For competition binding experiments between [^3H]-NMS and a range of concentrations of unlabeled orthosteric agonist at M2 mAChR nanodiscs in the presence of G protein and for competition binding at M2 mAChR membranes, data were fit to a two-site competition binding model or a one-site competition binding model. […] Monoexponential decay and one-phase association equations were fit to the radioligand dissociation and association data at M2 mAChR nanodiscs. Kinetic TRUPATH data were analyzed using a “baseline then rise to steady state with drift” equation ([44]).

[3] = target: T3, M2 mAChR (Homo sapiens, UniProt P08172); experiment: Kinetic Gαi1 (TRUPATH) protein activation assay in M2 mAChR CHO cells; type: cell-based; conditions: for Steady state: final effect level, normalized to ACh
T3 construct: expressed in transfected cells
T3 sequence (P08172 1-466): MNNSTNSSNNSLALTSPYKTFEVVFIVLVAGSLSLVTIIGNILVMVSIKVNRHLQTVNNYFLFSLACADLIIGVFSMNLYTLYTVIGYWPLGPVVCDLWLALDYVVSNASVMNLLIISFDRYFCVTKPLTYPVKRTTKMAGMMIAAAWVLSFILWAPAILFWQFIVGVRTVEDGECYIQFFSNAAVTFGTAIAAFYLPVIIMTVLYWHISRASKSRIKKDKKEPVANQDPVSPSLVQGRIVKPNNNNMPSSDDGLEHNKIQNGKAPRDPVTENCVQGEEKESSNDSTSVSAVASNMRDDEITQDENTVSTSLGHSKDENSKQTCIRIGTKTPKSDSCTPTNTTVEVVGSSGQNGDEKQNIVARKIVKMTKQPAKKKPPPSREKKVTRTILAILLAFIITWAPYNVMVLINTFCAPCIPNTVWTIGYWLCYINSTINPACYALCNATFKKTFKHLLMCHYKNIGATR
Method: Upon 60 to 80% confluence, WT hM2 mAChR expressing FlpIn CHO cells were transfected transiently using polyethylenimine (Sigma-Aldrich) with 10 ng per well of each the G protein TRUPATH biosensors pcDNA5/FRT/TO-Gαi1-RLuc8/pcDNA3.1-β3/pcDNA3.1-Gγ9-GFP2 giving a ratio of 1:1:1 ratio with 30 ng in total. Cells were plated at 30,000 cells per well into 96-well Greiner CELLSTAR white-walled plates (Sigma-Aldrich). Forty-eight hours later, cells were washed with 200 μl of PBS and replaced with 1x Hanks’ balanced salt solution supplemented with 10 mM Hepes. […] Cells were further incubated for 10 min at 25°C before BRET measurements were performed on a PHERAstar FSX plate reader (BMG Labtech) using 410/80-nm and 515/30-nm filters. […] The BRET signal was calculated as the ratio of 515/30-nm emission over 410/80-nm emission. The ratio was vehicle corrected using the initial four baseline measurements and then baseline corrected again using the vehicle-treated wells. Concentration-response curves were constructed from the area under the curve (AUC) of the double baseline-corrected kinetic traces and normalized to the highest AUC value in each dataset.
as §3

[4] = target: T3, M2 mAChR; experiment: Gi1 (TRUPATH) protein activation assay in M2 mAChR FlpIn CHO cells; type: cell-based; conditions: for Log τ: operational efficacy, operational model of agonism, LY211 value is an estimate (saturation not reached)
Method: Upon 60 to 80% confluence, WT hM2 mAChR expressing FlpIn CHO cells were transfected transiently using polyethylenimine (Sigma-Aldrich) with 10 ng per well of each the G protein TRUPATH biosensors pcDNA5/FRT/TO-Gαi1-RLuc8/pcDNA3.1-β3/pcDNA3.1-Gγ9-GFP2 giving a ratio of 1:1:1 ratio with 30 ng in total. Cells were plated at 30,000 cells per well into 96-well Greiner CELLSTAR white-walled plates (Sigma-Aldrich). Forty-eight hours later, cells were washed with 200 μl of PBS and replaced with 1x Hanks’ balanced salt solution supplemented with 10 mM Hepes. […] The ratio was vehicle corrected using the initial four baseline measurements and then baseline corrected again using the vehicle-treated wells. Concentration-response curves were constructed from the area under the curve (AUC) of the double baseline-corrected kinetic traces and normalized to the highest AUC value in each dataset.
as §2

[5] = target: T1, M2 mAChR; experiment: [3H]-NMS competition binding at M2 mAChR nanodiscs with or without Gi1 protein
Method: as §1, §2

[6] = target: T1, M2 mAChR; experiment: [3H]-NMS association and dissociation assays at M2 mAChR nanodiscs; type: binding
Method: The affinity of [^3H]-NMS for M2 mAChR in nanodiscs, as well as the concentration of receptor in nanodiscs, was determined through saturation binding with [^3H]-NMS. M2 nanodiscs were incubated with a range of concentrations of [^3H] NMS in a final volume of 200 μl of binding buffer [20 mM Hepes (pH 7.5), 100 mM NaCl, 10 mM MgCl2, and 0.5% bovine serum albumin] for 6 hours at RT. […] Membrane equilibrium binding experiments were performed with 15 μg of membrane expressing the WT hM2 mAChR in a 300-μl reaction volume of binding buffer with or without 100 μM Gpp[NH]pp in deep 96-well plates for 6 hours at RT. […] For all radioligand binding experiments, nonspecific binding was defined by 10 μM Atr and the assay was terminated through rapid filtration through Whatman GF/B filter plates using a 96-well harvester (PerkinElmer). Filter plates were dried overnight, and radioactivity was determined by adding 40 μl of MicroScint-O scintillation fluid and counting in a MicroBeta^2 Plate Counter (PerkinElmer Life Sciences).
as §3

[7] = saturating amount of drug alone
[8] = saturating orthosteric agonist + LY211
[9] = saturating amount of drug alone, baseline then rise to steady state with drift model

**Q.** For C[N+](C)(C)CC#CCOC1=NOCC1 [Ipx, iperoxo], which “(LY211) - Log αAgonist” value ([1]; Full interaction, − G protein heterotrimer, cooperativity between orthosteric agonist and LY211, ATCM) is on record?
**A.** 2.05 ± 0.21 (4)

**Q.** What about the pEC50 [2] of the same compound?
**A.** 8.23 ± 0.16

**Q.** What about the Steady state [3, 7] of the same compound?
**A.** 102 ± 0.95 (3)

**Q.** And the Steady state [3, 8]?
**A.** 114 ± 0.68 (4)

**Q.** And the Initial rate [3, 9]?
**A.** 217 ± 6.48 (3) BRET units min^−1

**Q.** And the Initial rate [3, 8]?
**A.** 586 ± 26.8 (4) BRET units min^−1

**Q.** What about the pEC50 ([4]; Gi1 activation (BRET), M2 mAChR FlpIn CHO cells, three-parameter logistic equation) of the same compound?
**A.** 9.18 ± 0.22 (7)

**Q.** What about the “Log τ” value [4] of the same compound?
**A.** 1.61 ± 0.25 (7)

**Q.** What about the “increase in affinity between pKi(Low) and pKi(High)” value ([5]; M2 mAChR nanodiscs, shift promoted by Gi1) of the same compound?
**A.** 112 fold

**Q.** What about the “increase in agonist affinity in the presence of 10 μM LY211” value ([5]; M2 mAChR nanodiscs, without G protein) of the same compound?
**A.** 112 fold

**Q.** And the “(G protein) - Log α” value ([5]; Nanodisc, cooperativity between agonist and G protein (Gi1), ATCM)?
**A.** 2.33 ± 0.18 (3)

**Q.** What about the “pKi(Low)” value ([5]; Nanodisc, two-site competition binding model, 6 hours at RT) of the same compound?
**A.** 7.72 ± 0.06 (11)

**Q.** What about the “FracHi - M2 mAChR nanodiscs - receptor:G protein molar ratio 1:0” value ([5]; fraction of receptors in high-affinity state, two-site model, R:G 1:0) of the same compound?
**A.** 0.12 ± 0.04 (11)

**Q.** And the “FracHi - M2 mAChR nanodiscs - receptor:G protein molar ratio 1:500” value ([5]; fraction of receptors in high-affinity state, two-site model, R:G 1:500 (Gi1))?
**A.** 0.68 ± 0.06 (3)

**Q.** What about the “FracHi - M2 mAChR nanodiscs - receptor:G protein molar ratio 1:1000” value ([5]; fraction of receptors in high-affinity state, two-site model, R:G 1:1000 (Gi1)) of the same compound?
**A.** 0.76 ± 0.06 (3)

**Q.** What about the “FracHi - M2 mAChR nanodiscs - receptor:G protein molar ratio 1:2000” value ([5]; fraction of receptors in high-affinity state, two-site model, R:G 1:2000 (Gi1)) of the same compound?
**A.** 0.91 ± 0.05 (3)

**Q.** What does the source list for C[N+]1(C)[C@@H]2CC(OC(=O)[C@H](CO)c3ccccc3)C[C@H]1[C@@H]1O[C@@H]12 (stereo partly shown) [[^3H]-NMS, [^3H]-N-methylscopolamine]?
**A.** B max ([6]; +10 μM LY211): 115 ± 13.2 (3); B max ([6]; +10 μM LY211 + Gi1): 20.33 ± 4.96 (3); B max ([6]; [3H]-NMS only, maximal binding at equilibrium, one-phase association model): 131 ± 4.71 (3); k off ([6]; [3H]-NMS only, monoexponential decay): 0.150 ± 0.011 (4) min^−1

**Q.** Cc1c(Cl)c(OCC(=O)N2CCN(C)CC2)nc2sc(C(=O)NC3CC3)c(N)c12 [LY211, LY2119620] was tested. Which “(LY211) - Log αAgonist” value ([1]; Full interaction ACh–LY211, + 1:2000 G protein heterotrimer, not different from zero (F test), constrained to zero) did it give?
**A.** 0

**Q.** What about the “(LY211) - Log α[3H]-NMS” value ([1]; Full interaction with ACh, + 1:2000 G protein heterotrimer, ATCM) of the same compound?
**A.** −0.37 ± 0.04 (4)

**Q.** And the “Log α[3H]-NMS” value ([1]; Titration against KD concentration of [3H]-NMS, ATCM)?
**A.** −0.19 ± 0.08 (3)

**Q.** And the “Log α[3H]-NMS” value ([1]; Titration against [3H]-NMS, + 1:2000 G protein heterotrimer, ATCM)?
**A.** −0.81 ± 0.20 (3)

**Q.** What about the “increase in the affinity of LY211 in the presence of G protein” value ([1]; titration against [3H]-NMS, with vs without saturating Gi1) of the same compound?
**A.** sixfold

**Q.** What about the Steady state [3, 7] of the same compound?
**A.** 69.1 ± 4.22 (3)

**Q.** What about the Initial rate [3, 9] of the same compound?
**A.** 198 ± 51.0 (3) BRET units min^−1

**Q.** And the “Log τ” value [4]?
**A.** 0.75 ± 0.12 (4)
